Assays:
[1] = test system: C57BL/6 DIO mice; assay: DIO animal model of NAFLD/NASH in young mice (Example 16); format: in vivo; parameters: OGTT: unit not given beside the values; settings: for OGTT: Day 82, 2 g/kg glucose PO
Excerpt: Species (number, sex, age/weight): C57BL/6 DIO mice (120+10 spares, male, ˜18 weeks of age) from Jackson Laboratories, Stock #380050. Note: 18 week old DIO mice sent sent with a minimum body weight of 39 grams. Spare animals may be used to replace study animals, as required, euthanized after completion of dose administration or transferred to Testing Facility Docket 07-12.
Cage Side Observations (Animal Health Checks): Cage side animal's health checks will be performed at least once daily to check for general health, mortality and moribundity. Clinical Observations: Clinical observations will be performed per exception. Body Weights: Body weights for all animals will be recorded prior to Day 1 and at least twice weekly thereafter, including prior to necropsy ([…]).
Dose Administration: Dosing for Groups 3-8 will be provided ad libitum in the diet. Dosing for Groups 9 (Saline) and 10 (Semaglutide at 123.4 μg/kg) in a 5 mL/kg volume, will begin on Day 1, and be performed 3 times weekly for 12 weeks by SC administration. Residual Test Article: All residual high fat diets will be frozen at nominally −20° C., and at the end of the study, several pellets of the diets for groups 2-9 (in 50-ml conical tubes) will be shipped to Sponsor, and the rest will be discarded. Residual control diets (group 1) will be stored ambient, and at the end of the study, several pellets in a 50 mL conical tube will be shipped to Sponsor and the rest is discarded. Residual test material for Group 10 will be stored at nominally −70° C., and at the end of the study, an aliquot of test material will be shipped to Sponsor, and the rest will be discarded.
(§1) Oral Glucose Tolerance Test (oGTT) On Day 82 (+/−2 days) an oGTT will be performed. Following an approximate 4 hour fast, 2 g/kg glucose (50% Dextrose diluted in sterile water for injection to a concentration of 0.4 g/mL) will be administered at 5 mL/kg via oral gavage (PO). Blood will be collected pre-glucose challenge (t=0) and at t=15, 30, 60, 90, and 120 minutes following the glucose challenge. Whole blood glucose levels will be evaluated at all time points using a handheld glucometer and will be reported in the Data Submission. This will be scheduled on a Tuesday or Thursday to avoid Group 9/10 dosing days.
as §1, with “Submission.” for “Submission. This will be scheduled on a Tuesday or Thursday to avoid Group 9/10 dosing days.”

[2] = test system: Male DIO mice; assay: In vivo evaluation for glucose disposal and lipidemia in DIO mice (Example 11); settings: for Fasting blood glucose levels (time 0 from OGTT): 28 days, 16 hour fast; for glucose AUC (0-120 min): OGTT day 28, glucose 2.0 g/kg PO
Experimental: The DIO mice were prepared by feeding male C57BL/6 mice a high fat diet (HFD, Research Diets D12492) from 6-14 weeks of age. DIO mice were housed individually and maintained on the HFD through the duration of study. A twelve-hour light cycle was maintained with room temperature maintained at 22-25° C. All of the mice were acclimated to the facility for 5 days prior to starting the study.
Following 5 days of facility acclimation, DIO mice were randomized into 8 groups of 10 based on body weight and blood glucose for assignment to treatment, as shown in Table 9:
All treatments were administered admixed in HFD (Research Diets, New Brunswick N.J.) and were provided ad libitum for 30 days. Drinking water for group 7 was supplemented with 1, 3 Butanediol at 3% concentration.
Body weight was recorded at baseline and twice weekly thereafter. Feed and water intakes were recorded each Monday, Wednesday, and Friday.
Blood samples (<3 μL) were obtained one hour post dose by tail clip at baseline and weekly thereafter for measurement of fed blood glucose by StatStrip. Additional anti-coagulated blood samples (100 μl, EDTA di-potassium salt) were obtained by tail clip one hour post-dose at baseline, day 14 and day 30. Anti-coagulated samples were quick frozen and stored on dry ice.
Animals were subjected to a 16 hour fast for performance of an oral glucose tolerance test (OGTT) on day 28. Blood samples were obtained via tail clip just prior to (8 am) and 15, 30, 60, 90, and 120 minutes post-glucose load (2.0 g/kg, PO) for assay of whole blood glucose (StatStrip). Feed was returned following last sample.
Animals were terminated on day 30-31 using CO2 inhalation and induction of pneumothorax. Terminal blood samples were obtained by cardiac puncture. Whole blood was processed to serum and analyzed for serum cholesterol, triglycerides, high density lipoprotein (HDL), low density lipoprotein (LDL) and non-esterified fatty acids (NEFA) using AU480 clinical analyzer.
Organ weights (liver, spleen, subcutaneous fat, inguinal fat, abdominal fat, and epididymal fat) were recorded. Sections of each fat were frozen or fixed in 4% paraformaldehyde/PBS, pH 6.9; Fat samples were placed on dry ice. Fixed liver samples (4% paraformaldehyde) were sent to Premier Laboratories for H&E staining and scoring for steatosis, inflammation and fibrosis. Spleen samples were prepared in ice cold 5% bovine serum albumin (BSA) in PBS or 4% paraformaldehyde. Sections of brain, heart, lung, and small and large intestine were fixed in 10% formalin.
All data are represented as group mean±SEM. Data were analyzed using JMP (SAS software). All normalizations were calculated using terminal body weight.
Baseline differences among groups were identified using Tukey-Kramer Hsd<0.05. Treatment effects compared to control were determined using Oneway ANOVA (*, p<0.05) followed by Dunnett's test where appropriate.

[3] = test system: naïve CD4+ T cells; assay: Human regulatory T cell differentiation assay; format: cell-based; settings: 3 mM, 6 days
Experimental: Peripheral blood mononuclear cells (PBMCs) from whole blood donated by health volunteers were separated by Ficoll-Paque gradient centrifugation and naïve CD4^+ T cells were subsequently isolated using magnet beads (EasySep™ Human Naïve CD4^+ T Cell Isolation Kit, Cambridge, Mass.). For regulatory T cell (Treg) differentiation assay, naïve CD4^+ T cells were cultured (1-10×10^4 cells) in CTS OpTmizer medium for 6 days and stimulated with 5 ng/ml TGF-β, 100 U/ml IL-2, and ImmunoCult™ Human […] T Cell Activator; Stemcell #10990) with/without our Compounds. Cell viability was determined using a viability dye (eBioscience Fixable Viability Dye eFluor 780: ThermoFisher 65-0865-14) at 1:500 dilution. The cells were gated for Treg, defined as Live, CD11c^−, CD14^−, CD19^−, CD8^−, CD4^+, CD3^+, CD25^+, FOXP3^+. Percent (%) Tregs were calculated as percentage of CD4^+, CD25^+, FOXP3^+ cells over total CD4^+ T cells. Statistical analysis was performed with GraphPad Prism Software Using One-Way ANOVA.

[4] = Assay 1. Stability in Simulated Gastric Fluid (SGF); format: in vitro ADME; settings: 1 μM, 37° C., SGF pH 1.6 with pepsin
How it was run: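 Simulated gastric fluid, prepared fresh as NaCl buffer at pH 1.6 with 0.1 mg/mL pepsin and FaSSIF powder, received test compound to 1 μM final and was held at 37 °C. LC/MS of acetonitrile-quenched samples, taken immediately and then periodically, gave degradation rates.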

[5] = Assay 2. Stability in Simulated Intestinal Fluid (SIF); format: in vitro ADME; settings: 1 μM, 37° C., SIF pH 6.7 with pancreatin
How it was run: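 Degradation rate measured by LC/MS after acetonitrile quench of timed aliquots, starting at T0. Test compound 1 μM in simulated intestinal fluid (pH 6.7 phosphate buffer, FaSSIF powder, pancreatin), shaken at 37 °C.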

[6] = Assay 3. Fecal Incubation Stability; format: in vitro ADME; settings: 1 or 10 μM, human fecal slurry, anaerobic

| Compound | Assay 1 (SGF) (% Remaining @ 1 hours) [4] | Assay 2 (SIF) (% @ Remaining 4 hours) [5] | Assay 3 (% Remaining at 24 h) [6] | other results |
| --- | --- | --- | --- | --- |
| Semaglutide [reference compound] | – | – | – | % HbA1c ([1]; 123.4 μg/kg SC 3 times weekly for 12 weeks, ctrl Saline): 7.90%; OGTT ([1]; 123.4 μg/kg SC 3 times weekly, ctrl Saline): 18214 |
| O=C(CCCc1ccccc1)Oc1cc(OC(=O)CCCc2ccccc2)c2c(c1)O[C@H](c1cc(OC(=O)CCCc3ccccc3)c(OC(=O)CCCc3ccccc3)c(OC(=O)CCCc3ccccc3)c1)[C@H](OC(=O)c1cc(OC(=O)CCCc3ccccc3)c(OC(=O)CCCc3ccccc3)c(OC(=O)CCCc3ccccc3)c1)C2 [Compound 5, [(2R,3R)-5,7-bis(4-phenylbutanoyloxy)-2-[3,4,5-tris(4-phenylbutanoyloxy)phenyl]chroman-3-yl] 3,4,5-tris(4-phenylbutanoyloxy)benzoate] | – | – | – | Fasting blood glucose levels (time 0 from OGTT) ([2]; 0.6% in HFD): 107.3 ± 5.3 mg/dL; glucose AUC (0-120 min) ([2]; 0.6% in HFD): 29628.0 ± 1791.7 mg/dL/min; Fasting blood glucose levels (time 0 from OGTT) ([2]; 2% in HFD): 104.7 ± 4.3 mg/dL; glucose AUC (0-120 min) ([2]; 2% in HFD): 27648.8 ± 866.3 mg/dL/min; Fasting blood glucose levels (time 0 from OGTT) ([2]; 6% in HFD): 95.1 ± 4.4 mg/dL; glucose AUC (0-120 min) ([2]; 6% in HFD): 26049.0 ± 455.4 mg/dL/min |
| CCCC(=O)O [Butyric Acid] | – | – | – | Cell viability % DMSO [3]: − (<90%: −); activity at 3000 µM ([3]; Homo sapiens, CD4+ T, 144 h, read-out: Treg induction % DMSO): < 90% |
| CCCC(=O)O[C@H]1OC[C@H](OC(=O)CCC)[C@H](OC(=O)CCC)[C@H]1OC(=O)CCC [Compound 184, (2R,3R,4S,5S)-3,4,5-tris(butanoyloxy)oxan-2-yl Butanoate] | – | – | – | % Weight change ([1]; ad libitum in HFD, 12 weeks): 11%; OGTT ([1]; ad libitum in HFD, ctrl HFD): 27257; % HbA1c ([1]; ad libitum in HFD, ctrl HFD): 5.96%; % Difference compared to ctrl ([1]; weight change vs HFD ctrl, ad libitum in HFD): −12% |
| CCC(=O)O[C@@H]1[C@@H](OC(=O)CC)[C@@H](OC(=O)Cc2c[nH]c3ccccc23)OC[C@H]1OC(=O)CC [Compound 149, (2R,3R,4S,5R)-2-{[2-(1H-indol-3-yl)acetyl]oxy}-4,5-bis(propanoyloxy)oxan-3-yl Propanoate] | C (C: >75% of the tested compound remaining) | A (A: <25% of the tested compound remaining) | A (A: <25% of the tested compound remaining) | – |
| O=C(CCc1c[nH]c2ccccc12)O[C@@H]1OC[C@@H](OC(=O)CCc2c[nH]c3ccccc23)[C@@H](OC(=O)CCc2c[nH]c3ccccc23)[C@H]1OC(=O)CCc1c[nH]c2ccccc12 [Compound 113, (2S,3R,4R,5R)-3,4,5-tris({[3-(1H-indol-3-yl)propanoyl]oxy})oxan-2-yl 3-(1H-indol-3-yl)propanoate] | C (C: >75% of the tested compound remaining) | A (A: <25% of the tested compound remaining) | A (A: <25% of the tested compound remaining) | – |
| CCC(=O)O[C@@H]1[C@@H](OC(=O)CC)[C@@H](OC(=O)Cc2c[nH]c3ccccc23)OC[C@@H]1OC(=O)CC [Compound 140, (3S,4S,5R,6R)-6-{[2-(1H-indol-3-yl)acetyl]oxy}-4,5-bis(propanoyloxy)oxan-3-yl Propanoate] | C (C: >75% of the tested compound remaining) | A (A: <25% of the tested compound remaining) | A (A: <25% of the tested compound remaining) | – |
| CCC(=O)OC[C@H]1O[C@H](OC(=O)Cc2c[nH]c3ccccc23)[C@H](OC(=O)CC)[C@@H](OC(=O)CC)[C@@H]1OC(=O)CC [Compound 146, [(2R,3R,4S,5R,6R)-6-{[2-(1H-indol-3-yl)acetyl]oxy}-3,4,5-tris(propanoyloxy)oxan-2-yl]methyl Propanoate] | C (C: >75% of the tested compound remaining) | A (A: <25% of the tested compound remaining) | A (A: <25% of the tested compound remaining) | – |
| CO[C@H]1O[C@H](COC(C)=O)[C@@H](OC(C)=O)[C@H](OC(C)=O)[C@@H]1OC(C)=O [Compound 193, (2R,3R,4S,5S,6S)-2-(acetoxymethyl)-6-methoxytetrahydro-2H-pyran-3,4,5-triyl Triacetate] | C (C: >75% of the tested compound remaining) | C (C: >75% of the tested compound remaining) | B (B: 25-75% of the tested compound remaining) | – |
| CCC(=O)O[C@H]1[C@H](OC)OC[C@@H](OC(=O)CC)[C@H]1OC(=O)CC [Compound 84, (2R,3R,4R,5R)-2-methoxy-3,5-bis(propanoyloxy)oxan-4-yl Propanoate] | C (C: >75% of the tested compound remaining) | C (C: >75% of the tested compound remaining) | B (B: 25-75% of the tested compound remaining) | – |
